The text below walks through data of patent US20140371158A1, “BEAUVERICIN COMPOSITIONS AND METHODS THEREOF FOR INHIBITING THE HSP90 CHAPERONE PATHWAY” (Georgia Regents University, priority 2013, published 2014).

Data set [1] deals with Hsp90 client proteins in Hs578T cells. Put plainly: Western blot of Hsp90 client proteins, Hs578T. It is filed as cell-based. The conditions noted are these: 3 μM, 48 h. The procedure:
(§1) Breast cancer cell lines Hs578T and MDA-MB-453 at 40% confluence in 6-well plates (Corning #3516) were cultured for 24 h and then treated with various concentrations of beauvericin. Cells were harvested at indicated time and cell lysates were made. 15 μg of protein lysate were analyzed by Western blotting using specific antibodies for the indicated proteins.
(§2) Cell lysates prepared in Example 5 were analyzed for markers for heat shock response using western blot. These include overexpression of Hsp70, Hsp27, Hsp40 and HOP.
Background: A western blot detects proteins with antibodies after separation by electrophoresis.

Data set [2] deals with MDA-MB-453 breast cancer cells. Put plainly: Cytotoxicity assay, MDA-MB-453. The class given is cell-based. As to conditions: 0-10 μM, 24, 48, 72 h, FIG. 6B.
Data set [3] relates to Hsp70, Hsp27, Hsp40 and HOP in Hs578T and MDA-MB-453 cells. As to the kind of experiment: Western blot of markers for heat shock response. As to conditions: 3 μM, 48 h, FIG. 7. It is filed as cell-based. How it is done: as §1, §2
The test system of another data set is PRA complexes. Put plainly: PR reconstitution assay in tubes, composition of protein complexes by SDS-PAGE. It is filed as biochemical, rabbit. As to conditions: FIG. 3. How it is done: (§3) Purified PR was adsorbed onto PR22 antibody-protein A-sepharose resin beads and was assembled into complexes as described previously (Kosano, et al., J Biol Chem, 273:32973-9 (1998)). Briefly, about 0.05 μM PR was incubated with 100 μl of RRL. After incubation for 30 min at 30° C., 0.1 μM [^3H]-progesterone (American Radiolabeled Chemicals, Inc #ART 0063) was added. Samples were incubated on ice for 3 h at 4° C. Complexes were then washed three times with 1 ml reaction buffer (20 mM Tris/HCl, pH 7.5, 5 mM MgCl2, 2 mM DTT, 0.01% NP-40, 50 mM KCl and 5 mM ATP) and assessed for bound progesterone by liquid scintillation using PerkinElmer Microbeta plate reader, and for composition of protein complexes by SDS-PAGE (10% gel) and Coomassie blue staining.

Data set [4] deals with Hsp90, Hsp70, Hsp40, HOP and p23. Put plainly: PR reconstitution assay using the five purified chaperones. It is filed as biochemical. As to conditions: FIG. 4. How it is done: as §3, with “Chem” for “Chem,”, “1.4 μM Hsp70, 0.8 μM Hsp90β, 0.2 μM Hsp40 (Ydj), 0.08 μM HOP and 2.6 μM p23 in reaction buffer (20 mM Tris/HCl, pH 7.5, 5 mM MgCl2, 2 mM DTT, 0.01% NP-40, 50 mM KCl and 5 mM ATP).” for “100 μl of RRL.”, “ml of” for “ml”, “buffer” for “buffer (20 mM Tris/HCl, pH 7.5, 5 mM MgCl2, 2 mM DTT, 0.01% NP-40, 50 mM KCl and 5 mM ATP)”, “reader” for “reader,”

For a further data set, the system named is HeLa-PRB cells. As to the kind of experiment: Immunocytochemistry and fluorescence microscopy, nucleocytoplasmic trafficking of steroid receptors. It is filed as cell-based. The procedure: HeLa-PRB cells were grown in 24-well plates (Corning #3337) on micro-cover glasses (Electron Microscopy Sciences) to about 50% confluence in MEM, 1× (Cellgro #10-010-CV) medium supplemented with 10% fetal bovine serum. Cells were treated with 3 μM beauvericin (or DMSO control) for 24 h. Cells were fixed with 0.1 M PIPES, pH 6.95, 1 mM EGTA, pH 8.0, 3 mM MgSO4, 3% paraformaldehyde, permeabilized with 0.1% triton X-100, and blocked with 10% fetal bovine serum with 5% glycerol and stored at 4° C. Primary antibodies against PRB, GR and Hsp90 and secondary antibodies were prepared in the blocking buffer. Coverslips were washed and mounted on slides with ProLong Gold anti-fade reagent with 4′,6-diamidino-2-phenylindole (Invitrogen). Cells were imaged using a Zeiss Imager M1 microscope. Deconvolution of Z-stack images was done using an inverse filter algorithm with auto-linear normalization.

The conditions of data set [5]: Sigma-Aldrich product B7510, powder; cited from earlier work.
Data set [6] has as its system Hsp90 client proteins in MDA-MB-453 cells. Put plainly: Western blot of Hsp90 client proteins, MDA-MB-453. The class given is cell-based. As to conditions: 3 μM, 48 h. How it is done:
as §1, §2

Data set [7] deals with Hs578T breast cancer cells. As to the kind of experiment: Cytotoxicity assay, Hs578T. The class given is cell-based. The conditions noted are these: 0-10 μM, 24, 48, 72 h, FIG. 6A.
Data set [8] has as its system Hsp90 chaperone (refolding of PRA in RRL). As to the kind of experiment: Progesterone receptor (PR) reconstitution assay in rabbit reticulocyte lysate, recovery of hormone binding activity. It is filed as biochemical. From the text:
To identify novel small molecule inhibitors of molecular chaperones, a high-throughput functional screen was developed based on the isoform A of progesterone receptor (PRA), a well-established physiological client of Hsp90, and using rabbit reticulocyte lysate (RRL) as a source of molecular chaperones. This comprehensive functional assay measured the recovery of hormone binding activity of PRA after mild heat treatment. Purified PR was adsorbed onto PR22 antibody bound to protein A that was absorbed on 96 well plates. 100 μl of RRL lysate and ATP regeneration system was added to each well. After incubation for 30 min at 30° C., 0.1 μM [^3H]-progesterone (American Radiolabeled Chemicals, Inc #ART 0063) was added. Plates were incubated on ice for 2 h at 4° C. Complexes were then washed three times with 200 μl of reaction buffer (20 mM Tris/HCl, pH 7.5, 5 mM MgCl2, 2 mM DTT, 0.01% NP-40, 50 mM KCl and 5 mM ATP) and assessed for bound progesterone by liquid scintillation using PerkinElmer Microbeta plate reader.
Beauvericin was added to the PR reconstitution assay as in example 1, and hormone binding activity was measured.

In brackets after ≈: the same amount, converted by molar mass.

In the case of `CC(C)[C@@H]1OC(=O)[C@@H](Cc2ccccc2)N(C)C(=O)[C@H](C(C)C)OC(=O)[C@@H](Cc2ccccc2)N(C)C(=O)[C@H](C(C)C)OC(=O)[C@@H](Cc2ccccc2)N(C)C1=O` [beauvericin], in [1], the AKT destabilization entry is recorded as “destabilized” and the Her2 destabilization entry is on record as “reverse profile”. Also, in [1] (FIG. 7A), the “cellular degradation of Hsp90 clients (AKT, pAKT, CDK4, ILK, Her2, Her3, GR)” value is recorded as “caused cellular degradation”. The “in vitro cytotoxicity (relative survival)” value in data set [2] is “potent in vitro cytotoxicity”. In data set [3], the Hsp40 expression result is recorded as “down-regulates” and the “overexpression of HOP” value is on record as “does not induce overexpression”. In [3] (in contrast to 17-AAG), the “overexpression of Hsp27” value was “does not induce overexpression” and the “overexpression of Hsp70” value is reported as “does not induce overexpression”. Also, the “level of Hsp90 in PRA complexes” value in the data set on PRA complexes is given as “decreased”. The “recruitment of Exportin-7 into PRA complexes” value in the data set on PRA complexes (mass spectrometry) was “caused the recruitment of a novel protein into these complexes”. In data set [4], the “inhibitory activity on five-protein system (PRA reconstitution)” value was “no inhibitory activity”. In addition, in the data set on HeLa-PRB cells (HeLa-PRB cells), the “PRB stability by Western blot” value was “not destabilized”. Also, in the data set with HeLa-PRB cells (HeLa-PRB, 3 μM, 24 h), the “PRB recognition by the monoclonal antibody PR6 in immunocytochemistry” value is on record as “reproducibly blocked” and the “glucocorticoid receptor (GR) localization” value is listed as “lock it in the nucleus”. In data set [5], the solubility in acetonitrile is 1000 µg/mL (≈ 1280 µM) and the solubility in methanol was 1000 µg/mL (≈ 1280 µM). Also, in data set [6], the AKT destabilization result is “not” and the Her2 destabilization result is “reverse profile”. Besides, the “cellular degradation of Hsp90 clients (AKT, pAKT, CDK4, ILK, Her2, Her3, GR)” value in data set [6] (FIG. 7B) was “caused cellular degradation”. In addition, the “in vitro cytotoxicity (relative survival)” value in data set [7] was “potent in vitro cytotoxicity”. Also, the “inhibition of reconstitution of PRA in RRL (hormone binding activity)” value in data set [8] (FIG. 1, compared with 17-AAG) was “comparable efficacy to the classical Hsp90 inhibitor 17-AAG”. Besides, in [8] (FIG. 2, 0, 1, 5, 10, 20, 40 μM), the “inhibition of the ability of the Hsp90 chaperone to refold PRA” value is on record as “concentration-dependent manner”.
